The values that follow come from patent US20220257704A1, “COMBINATION OF CHEMOTHERAPY WITH RECOMBINANT S. ROLFSII LECTIN” (Unichem Laboratories Ltd, priority 2018, published 2022).

One assay relates to MDA-MB-231 cell line. Description: MTT cytotoxicity assay, 48 h, alone and in combination (IC50 and Combination Index). In kind it is cell-based. As to conditions: Homo sapiens, read-out: IC50 of Paclitaxel. The procedure:
The cell were kept in contact with the recombinant lectin of SEQ ID NO: 1 and the chemotherapy agent for 48 h and the cytotoxic effect (percentage cytotoxicity) was measured. The cytotoxic effect was determined by well-known colorimetric MTT assay (Mossman, T. 1983 Rapid colorimetric assay for cellular growth and survival: application to proliferation and cytotoxicity assays Journal of Immunological Methods, volume 65, pages 55-63) for assessing cell metabolic activity.
Based on percentage cytotoxicity data, IC50 values were determined using the software GraphPad Prism version 4.01.
Combination Index (CI) values were determined for each drug concentration combination. The CI values were calculated based on the IC50 values using the formula as given in below.
A study was performed to determine the effect of the concentration of the recombinant lectin represented by SEQ ID NO: 1 on the IC50 of Paclitaxel for cytotoxicity in MDA-MB-231 cells. Conversely the effect of the concentration of Paclitaxel on the IC50 of the recombinant lectin represented by SEQ ID NO: 1.
Similarly another study was performed for Carboplatin in combination with the recombinant lectin of SEQ ID NO: 1.
In a further study, MDA-MB-231 cells were treated with Paclitaxel (0.001 nM-10 nM) in combination with SEQ ID NO: 1(2.5 μg/mL-80 μg/mL) for 48 h. Similarly another set of cells were treated with Carboplatin (10 μM-1000 μM) in combination with SEQ ID NO: 1 (2.5 μg/mL-80 μg/mL).
A general note: Tetrazolium assays rely on reduction of a dye to a coloured formazan, in cell work by metabolically active cells.

For a further assay, the system named is PA-1 cell line. Described as above. As to conditions: for IC50: Homo sapiens, read-out: IC50 of Paclitaxel. It counts as cell-based.

What is called IC50 is the concentration that inhibits the measured activity by half.

Each structure is given as a SMILES string. Read-outs that look alike come from different tables or passages of the source.

Experimental for PA-1 cell line: In a further study, PA-1 cells were treated with Cisplatin(0.01 μM-5 μM) in combination with SEQ ID NO: 1(1 μg/mL-20 μg/mL) for 48 h. Similarly another set of cells were treated with Paclitaxel (0.01 nM-5 nM) in combination with SEQ ID NO: 1 (1 μg/mL-20 μg/mL).

For the compound `CC(=O)O[C@H]1C(=O)[C@@]2(C)[C@H]([C@H](OC(=O)c3ccccc3)[C@]3(O)C[C@H](OC(=O)[C@H](O)[C@@H](NC(=O)c4ccccc4)c4ccccc4)C(C)=C1C3(C)C)[C@]1(OC(C)=O)CO[C@@H]1C[C@@H]2O` [Paclitaxel, reference compound], the half-maximal inhibitory concentration (IC50) with MDA-MB-231 cell line (MDA-MB-231, SEQ ID NO: 1 at 0 μg/mL) amounted to 1.64 nM; in the assay on MDA-MB-231 cell line (MDA-MB-231, SEQ ID NO: 1 at 5 μg/mL) it was 9.31 nM; with MDA-MB-231 cell line (MDA-MB-231, SEQ ID NO: 1 at 10 μg/mL), 0.389 nM; with MDA-MB-231 cell line (MDA-MB-231, SEQ ID NO: 1 at 20 μg/mL) it was 0.123 nM; in the assay with MDA-MB-231 cell line (MDA-MB-231, SEQ ID NO: 1 at […]), 3.98 nM; with PA-1 cell line (PA-1, SEQ ID NO: 1 at 0 μg/mL) it was 4.04 nM. Also, the half-maximal inhibitory concentration (IC50) with PA-1 cell line (PA-1, SEQ ID NO: 1 at 1 μg/mL) turned out to be 3.62 nM; in the assay with PA-1 cell line (PA-1, SEQ ID NO: 1 at 5 μg/mL) it was 0.222 nM; with PA-1 cell line (PA-1, SEQ ID NO: 1 at […]), 3.48 nM. Also, the “Conc. of other therapeutic agents showing synergistic effect” value in the assay with PA-1 cell line (Paclitaxel with SEQ ID NO: 1, paired with SEQ ID NO: 1 conc.) is reported as 0.25 to 5 nM.
